Where “and” joins values, the source holds several entries; their conditions need not be identical. Equal values may be shown once.
Columns and labels:
[1] = system: Brassica napus (Nexera canola, BRSNN-NEX); test: Greenhouse postemergence application, visual injury after 20-22 d, BRSNN-NEX; settings: for Obs % visual injury: BRSNN-NEX
Protocol: (§1) Seeds of the desired test plant species were planted in Sun Gro MetroMix® 306 planting mixture, which typically has a pH of 6.0 to 6.8 and an organic matter content of about 30 percent, in plastic pots with a surface area of 103.2 square centimeters (cm^2). […] The plants were grown for 7-36 days (d) in a greenhouse with an approximate 14-hour (h) photoperiod which was maintained at about 23° C. during the day and 22° C. during the night. Nutrients and water were added on a regular basis and supplemental lighting was provided with overhead metal halide 1000-Watt lamps as necessary. The plants were employed for testing when they reached the second or third true leaf stage.
(§2) An aliquot of formulated benzyl 4-amino-3-chloro-6-(4-chloro-2-fluoro-3-methoxyphenyl)-5-fluoropyridine-2-carboxylate (florpyrauxifen-benzyl; 300 grams active ingredient per liter (g ai/L) suspension concentrate (SC)) was placed in a 25 mL glass vial and diluted in a volume of 1.25% (v/v) aqueous Agri-dex crop oil concentrated to obtain a stock solution. […] The concentrated stock solutions were diluted with an aqueous mixture of 1.25% v/v of aqueous Agri-dex crop oil concentrate to provide the appropriate application rates. Compound requirements are based upon a 12 milliliter (mL) application volume at a rate of 187 liters per hectare (L/ha). Stock solutions of the formulated materials were prepared following the same procedure. Spray solutions of the compound mixtures were prepared by adding the stock solutions to the appropriate amount of dilution solution to form a 12 mL spray solution. Formulated compounds were applied to the plant material with an overhead Mandel track sprayer equipped with 8002E nozzles calibrated to deliver 187 L/ha over an application area of 0.503 square meters (m^2) at a spray height of 18 inches (43 centimeters (cm)) above average plant canopy. Control plants were sprayed in the same manner with the solvent blank.
(§3) The treated plants and control plants were placed in a greenhouse as described above and watered by sub-irrigation to prevent wash-off of the test compounds. After 20-22 d, the condition of the test plants as compared with that of the control plants was determined visually and scored on a scale of 0 to 100 percent where 0 corresponds to no injury and 100 corresponds to complete kill. Colby's equation was used to determine the herbicidal effects expected from the mixtures.
(§4) Benzyl 4-amino-3-chloro-6-(4-chloro-2-fluoro-3-methoxyphenyl)-5-fluoropyridine-2-carboxylate (florpyrauxifen-benzyl, 300 g ai/L SC) was combined in two-, three-, and four-way mixtures with one or more of the following: clopyralid-olamine (as Lontrel™ 35A Herbicidal Concentrate), quinclorac (as Facet 75DF), isoxadifen-ethyl (100 g/L SC), cloquintocet-mexyl (120 g/L EC) or mefenpyr-diethyl (as mefenpyr-diethyl 15WP). The mixtures were applied to kale/Chinese kale (Brassica alboglabra, BRSAG), Juncea canola or brown mustard (Brassica juncea, BRSJU), rutabaga (Brassica napus var. napobrassica, BRSNA), all varieties of canola and oilseed rape (Brassica napus, BRSNN), Nexera™ canola (Brassica napus, BRSNN-NEX), winter oilseed rape (Brassica napus, BRSNW), Roundup Ready® canola (Brassica napus, RR-BRSNN), and turnip or Polish canola (Brassica rapa, BRSRR), and the phytotoxicity of the compositions was measured.
(§5) Colby's equation was used to determine the herbicidal effects expected from the mixtures evaluated in the described trials (Colby, S. R. Calculation of the synergistic and antagonistic response of herbicide combinations. Weeds 1967, 15, 20-22.).
(§6) The following equation was used to calculate the expected activity of mixtures containing two active ingredients, A and B: Expected=A+B−(A×B/100) • A=observed efficacy of active ingredient A at the same concentration as used in the mixture; • B=observed efficacy of active ingredient B at the same concentration as used in the mixture.

[2] = system: Brassica napus (Roundup Ready canola, RR-BRSNN); test: Greenhouse postemergence application, visual injury after 20-22 d, RR-BRSNN; settings: for Obs % visual injury: RR-BRSNN
Protocol: as §1, §2, §3, §4, §5, §6

[3] = system: Brassica rapa (turnip or Polish canola, BRSRR); test: Greenhouse postemergence application, visual injury after 20-22 d, BRSRR; settings: for Obs % visual injury: BRSRR
Protocol: as §1, §2, §3, §4, §5, §6

[4] = system: Brassica alboglabra (kale/Chinese kale, BRSAG); test: Greenhouse postemergence application, visual injury after 20-22 d, BRSAG; settings: for Obs % visual injury: BRSAG
Protocol: as §1, §2, §3, §4, §5, §6

[5] = system: Brassica napus var. napobrassica (rutabaga, BRSNA); test: Greenhouse postemergence application, visual injury after 20-22 d, BRSNA; settings: for Obs % visual injury: BRSNA
Protocol: as §1, §2, §3, §4, §5, §6

[6] = system: Brassica napus (all varieties of canola and oilseed rape, BRSNN); test: Greenhouse postemergence application, visual injury after 20-22 d, BRSNN; settings: for Obs % visual injury: BRSNN
Protocol: as §1, §2, §3, §4, §5, §6

[7] = system: Brassica napus (winter oilseed rape, BRSNW); test: Greenhouse postemergence application, visual injury after 20-22 d, BRSNW; settings: for Obs % visual injury: BRSNW
Protocol: as §1, §2, §3, §4, §5, §6

[8] = system: Brassica juncea (Juncea canola or brown mustard, BRSJU); test: Greenhouse postemergence application, visual injury after 20-22 d, BRSJU; settings: for Obs % visual injury: BRSJU
Protocol: as §1, §2, §3, §4, §5, §6

[9] = clopyralid-olamine 50 g ai/ha alone
[10] = clopyralid-olamine 100 g ai/ha alone
[11] = clopyralid-olamine 200 g ai/ha alone
[12] = postemergence application, greenhouse, application rate (g ai/ha) varies

CCOC(=O)C1=NN(c2ccc(Cl)cc2Cl)C(C)(C(=O)OCC)C1 (racemic) [Mefenpyr-diethyl, diethyl (RS)-1-(2,4-dichlorophenyl)-5-methyl-2-pyrazoline-3,5-dicarboxylate]
0%: Obs % visual injury BRSNN-NEX ([1]; safener alone 5 g ai/ha) | Obs % visual injury BRSNN-NEX ([1]; safener alone 10 g ai/ha) | Obs % visual injury BRSNN-NEX ([1]; safener alone 20 g ai/ha) | Obs % visual injury BRSNN-NEX ([1]; safener alone 40 g ai/ha) | Obs % visual injury RR-BRSNN ([2]; safener alone 5 g ai/ha) | Obs % visual injury RR-BRSNN ([2]; safener alone 10 g ai/ha) | Obs % visual injury RR-BRSNN ([2]; safener alone 20 g ai/ha) | Obs % visual injury RR-BRSNN ([2]; safener alone 40 g ai/ha) | Obs % visual injury BRSRR ([3]; safener alone 5 g ai/ha) | Obs % visual injury BRSRR ([3]; safener alone 10 g ai/ha) | Obs % visual injury BRSRR ([3]; safener alone 20 g ai/ha) | Obs % visual injury BRSRR ([3]; safener alone 40 g ai/ha) | Obs % visual injury BRSAG ([4]; safener alone 5 g ai/ha) | Obs % visual injury BRSAG ([4]; safener alone 10 g ai/ha) | Obs % visual injury BRSAG ([4]; safener alone 20 g ai/ha) | Obs % visual injury BRSAG ([4]; safener alone 40 g ai/ha) | Obs % visual injury BRSNA ([5]; safener alone 5 g ai/ha) | Obs % visual injury BRSNA ([5]; safener alone 10 g ai/ha) | Obs % visual injury BRSNA ([5]; safener alone 20 g ai/ha) | Obs % visual injury BRSNA ([5]; safener alone 40 g ai/ha) | Obs % visual injury BRSNN ([6]; safener alone 5 g ai/ha) | Obs % visual injury BRSNN ([6]; safener alone 10 g ai/ha) | Obs % visual injury BRSNN ([6]; safener alone 20 g ai/ha) | Obs % visual injury BRSNN ([6]; safener alone 40 g ai/ha) | Obs % visual injury BRSNW ([7]; safener alone 5 g ai/ha) | Obs % visual injury BRSNW ([7]; safener alone 10 g ai/ha) | Obs % visual injury BRSNW ([7]; safener alone 20 g ai/ha) | Obs % visual injury BRSNW ([7]; safener alone 40 g ai/ha) | Obs % visual injury BRSJU ([8]; safener alone 5 g ai/ha) | Obs % visual injury BRSJU ([8]; safener alone 10 g ai/ha) | Obs % visual injury BRSJU ([8]; safener alone 20 g ai/ha) | Obs % visual injury BRSJU ([8]; safener alone 40 g ai/ha)

O=C(O)c1nc(Cl)ccc1Cl [Clopyralid-olamine, 2-hydroxyethanaminium 3,6-dichloro-2-pyridinecarboxylate]
2% and 0%: % Visual Injury BRSNN Obs [6, 12]
0%: Obs % visual injury ([1]; partner alone 50 g ai/ha) | Obs % visual injury ([1]; partner alone 100 g ai/ha) | Obs % visual injury ([1]; partner alone 200 g ai/ha) | % Visual Injury BRSNN-NEX Obs [1, 9] | % Visual Injury Obs [1, 9] | % Visual Injury BRSNN-NEX Obs [1, 10] | % Visual Injury Obs [1, 10] | % Visual Injury BRSNN-NEX Obs [1, 11] | % Visual Injury Obs [1, 11] | % Visual Injury BRSNN-NEX Obs [1, 12] | Obs % visual injury ([2]; partner alone 50 g ai/ha) | Obs % visual injury ([2]; partner alone 100 g ai/ha) | Obs % visual injury ([2]; partner alone 200 g ai/ha) | % Visual Injury Obs [2, 9] | % Visual Injury RR-BRSNN Obs [2, 9] | % Visual Injury Obs [2, 10] | % Visual Injury RR-BRSNN Obs [2, 10] | % Visual Injury Obs [2, 11] | % Visual Injury RR-BRSNN Obs [2, 11] | % Visual Injury RR-BRSNN Obs [2, 12] | Obs % visual injury ([3]; partner alone 50 g ai/ha) | Obs % visual injury ([3]; partner alone 100 g ai/ha) | Obs % visual injury ([3]; partner alone 200 g ai/ha) | % Visual Injury BRSRR Obs [3, 9] | % Visual Injury Obs [3, 9] | % Visual Injury BRSRR Obs [3, 10] | % Visual Injury Obs [3, 10] | % Visual Injury BRSRR Obs [3, 11] | % Visual Injury Obs [3, 11] | % Visual Injury BRSRR Obs [3, 12] | Obs % visual injury ([4]; partner alone 50 g ai/ha) | Obs % visual injury ([4]; partner alone 100 g ai/ha) | Obs % visual injury ([4]; partner alone 200 g ai/ha) | % Visual Injury BRSAG Obs [4, 9] | % Visual Injury Obs [4, 9] | % Visual Injury BRSAG Obs [4, 10] | % Visual Injury Obs [4, 10] | % Visual Injury BRSAG Obs [4, 11] | % Visual Injury Obs [4, 11] | % Visual Injury BRSAG Obs [4, 12] | Obs % visual injury ([5]; partner alone 50 g ai/ha) | Obs % visual injury ([5]; partner alone 100 g ai/ha) | Obs % visual injury ([5]; partner alone 200 g ai/ha) | % Visual Injury BRSNA Obs [5, 9] | % Visual Injury Obs [5, 9] | % Visual Injury BRSNA Obs [5, 10] | % Visual Injury Obs [5, 10] | % Visual Injury BRSNA Obs [5, 11] | % Visual Injury Obs [5, 11] | % Visual Injury BRSNA Obs [5, 12] | Obs % visual injury ([6]; partner alone 100 g ai/ha) | Obs % visual injury ([6]; partner alone 200 g ai/ha) | % Visual Injury BRSNN Obs [6, 10] | % Visual Injury Obs [6, 10] | % Visual Injury BRSNN Obs [6, 11] | % Visual Injury Obs [6, 11] | Obs % visual injury ([7]; partner alone 50 g ai/ha) | Obs % visual injury ([7]; partner alone 100 g ai/ha) | Obs % visual injury ([7]; partner alone 200 g ai/ha) | % Visual Injury BRSNW Obs [7, 9] | % Visual Injury Obs [7, 9] | % Visual Injury BRSNW Obs [7, 10] | % Visual Injury Obs [7, 10] | % Visual Injury BRSNW Obs [7, 11] | % Visual Injury Obs [7, 11] | % Visual Injury BRSNW Obs [7, 12] | Obs % visual injury ([8]; partner alone 50 g ai/ha) | Obs % visual injury ([8]; partner alone 100 g ai/ha) | Obs % visual injury ([8]; partner alone 200 g ai/ha) | % Visual Injury BRSJU Obs [8, 9] | % Visual Injury Obs [8, 9] | % Visual Injury BRSJU Obs [8, 10] | % Visual Injury Obs [8, 10] | % Visual Injury BRSJU Obs [8, 11] | % Visual Injury Obs [8, 11] | % Visual Injury BRSJU Obs [8, 12]
2%: Obs % visual injury ([6]; partner alone 50 g ai/ha) | % Visual Injury BRSNN Obs [6, 9] | % Visual Injury Obs [6, 9]

Source: US10219513B2, “Safening 4-amino-3-chloro-6-(4-chloro-2-fluoro-3-methoxyphenyl)-5-fluoropyridine-2-carboxylic acid compositions in Brassica species and methods of use thereof” (Dow AgroSciences LLC, priority 2016, dated 2019)
